Measured values from patent US20150105252A1, “SUBSTITUTED PYRAZOLES AS HERBICIDES” (E I DU PONT DE NEMOURS AND COMPANY, priority 2013, published 2015).

Experiments:
Experiment in all cases: Test C postemergence
[1] = tested on: corn; assay type: in vivo, Zea mays; conditions: for Plant response rating (scale of 0 to 100 where 0 is no effect and 100 is complete control), Corn: Postemergence, 31 g ai/ha, visually evaluated after 13 to 15 days; for Corn plant response rating / Plant response rating, Corn: postemergence; for Corn plant response rating: 62 g ai/ha, scale 0 to 100
Method in brief: (§1)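 Scores of 0 (no effect) to 100 (complete control) were assigned by eye after 13–15 days, comparing treated pots with controls. Soil-applied (preemergence) treatments went onto seeds in loam and sand; foliar (postemergence) treatments onto 1- to 4-leaf plants in peat medium.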

[2] = tested on: waterhemp; assay type: in vivo, Amaranthus rudis; conditions: for Plant response rating (scale of 0 to 100 where 0 is no effect and 100 is complete control), Waterhemp: Postemergence, 31 g ai/ha, visually evaluated after 13 to 15 days; for Waterhemp plant response rating / Plant response rating, Waterhemp: postemergence; for Waterhemp plant response rating: 62 g ai/ha, scale 0 to 100
Method in brief: as §1

[3] = tested on: ryegrass, Italian; assay type: in vivo, Lolium multiflorum; conditions: for Plant response rating (scale of 0 to 100 where 0 is no effect and 100 is complete control), Ryegrass, Italian: Postemergence, 31 g ai/ha, visually evaluated after 13 to 15 days; for Ryegrass, Italian plant response rating / Plant response rating, Ryegrass, Italian: postemergence; for Ryegrass, Italian plant response rating: 62 g ai/ha, scale 0 to 100
Method in brief: as §1

[4] = tested on: oat, wild; assay type: in vivo, Avena fatua; conditions: for Plant response rating (scale of 0 to 100 where 0 is no effect and 100 is complete control), Oat, Wild: Postemergence, 31 g ai/ha, visually evaluated after 13 to 15 days; for Oat, Wild plant response rating / Plant response rating, Oat, Wild: postemergence; for Oat, Wild plant response rating: 62 g ai/ha, scale 0 to 100
Method in brief: as §1

[5] = tested on: kochia; assay type: in vivo, Kochia scoparia; conditions: for Plant response rating (scale of 0 to 100 where 0 is no effect and 100 is complete control), Kochia: Postemergence, 31 g ai/ha, visually evaluated after 13 to 15 days; for Kochia plant response rating / Plant response rating, Kochia: postemergence; for Kochia plant response rating: 62 g ai/ha, scale 0 to 100
Method in brief: as §1

[6] = tested on: lambsquarters; assay type: in vivo, Chenopodium album; conditions: for Plant response rating (scale of 0 to 100 where 0 is no effect and 100 is complete control), Lambsquarters: Postemergence, 31 g ai/ha, visually evaluated after 13 to 15 days; for Lambsquarters plant response rating / Plant response rating, Lambsquarters: postemergence; for Lambsquarters plant response rating: 62 g ai/ha, scale 0 to 100
Method in brief: as §1

[7] = tested on: soybean; assay type: in vivo, Glycine max; conditions: for Plant response rating (scale of 0 to 100 where 0 is no effect and 100 is complete control), Soybean: Postemergence, 31 g ai/ha, visually evaluated after 13 to 15 days; for Soybean plant response rating / Plant response rating, Soybean: postemergence; for Soybean plant response rating: 62 g ai/ha, scale 0 to 100
Method in brief: as §1

[8] = tested on: oilseed rape; assay type: in vivo, Brassica napus; conditions: for Plant response rating (scale of 0 to 100 where 0 is no effect and 100 is complete control), Oilseed Rape: Postemergence, 31 g ai/ha, visually evaluated after 13 to 15 days; for Oilseed Rape plant response rating / Plant response rating, Oilseed Rape: postemergence; for Oilseed Rape plant response rating: 62 g ai/ha, scale 0 to 100
Method in brief: as §1

[9] = tested on: barnyardgrass; assay type: in vivo, Echinochloa crus-galli; conditions: for Plant response rating (scale of 0 to 100 where 0 is no effect and 100 is complete control), Barnyardgrass: Postemergence, 31 g ai/ha, visually evaluated after 13 to 15 days; for Barnyardgrass plant response rating / Plant response rating, Barnyardgrass: postemergence; for Barnyardgrass plant response rating: 62 g ai/ha, scale 0 to 100
Method in brief: as §1

[10] = tested on: foxtail, giant; assay type: in vivo, Setaria faberii; conditions: for Plant response rating (scale of 0 to 100 where 0 is no effect and 100 is complete control), Foxtail, Giant: Postemergence, 31 g ai/ha, visually evaluated after 13 to 15 days; for Foxtail, Giant plant response rating / Plant response rating, Foxtail, Giant: postemergence; for Foxtail, Giant plant response rating: 62 g ai/ha, scale 0 to 100
Method in brief: as §1

[11] = tested on: nutsedge, yellow; assay type: in vivo, Cyperus esculentus; conditions: for Plant response rating (scale of 0 to 100 where 0 is no effect and 100 is complete control), Nutsedge, Yellow: Postemergence, 31 g ai/ha, visually evaluated after 13 to 15 days; for Nutsedge, Yellow plant response rating / Plant response rating, Nutsedge, Yellow: postemergence; for Nutsedge, Yellow plant response rating: 62 g ai/ha, scale 0 to 100
Method in brief: as §1

[12] = tested on: pigweed; assay type: in vivo, Amaranthus retroflexus; conditions: for Plant response rating (scale of 0 to 100 where 0 is no effect and 100 is complete control), Pigweed: Postemergence, 31 g ai/ha, visually evaluated after 13 to 15 days; for Pigweed plant response rating / Plant response rating, Pigweed: postemergence; for Pigweed plant response rating: 62 g ai/ha, scale 0 to 100
Method in brief: as §1

[13] = tested on: wheat; assay type: in vivo, Triticum aestivum; conditions: for Plant response rating (scale of 0 to 100 where 0 is no effect and 100 is complete control), Wheat: Postemergence, 31 g ai/ha, visually evaluated after 13 to 15 days; for Wheat plant response rating / Plant response rating, Wheat: postemergence; for Wheat plant response rating: 62 g ai/ha, scale 0 to 100
Method in brief: as §1

[14] = tested on: galium; assay type: in vivo, Galium aparine; conditions: for Plant response rating (scale of 0 to 100 where 0 is no effect and 100 is complete control), Galium: Postemergence, 31 g ai/ha, visually evaluated after 13 to 15 days; for Galium plant response rating / Plant response rating, Galium: postemergence; for Galium plant response rating: 62 g ai/ha, scale 0 to 100
Method in brief: as §1

[15] = tested on: ragweed; assay type: in vivo, Ambrosia elation; conditions: for Plant response rating (scale of 0 to 100 where 0 is no effect and 100 is complete control), Ragweed: Postemergence, 31 g ai/ha, visually evaluated after 13 to 15 days; for Ragweed plant response rating / Plant response rating, Ragweed: postemergence; for Ragweed plant response rating: 62 g ai/ha, scale 0 to 100
Method in brief: as §1

[16] = 250 g ai/ha, scale 0 to 100 (0 no effect, 100 complete control)
[17] = 125 g ai/ha, scale 0 to 100, 0 no effect, 100 complete control

CCNC(=O)c1cc(CC)n(Cc2ccnc(OC(F)F)c2)n1 [Compound 130]
60: Plant response rating, Oilseed Rape [8, 16] | Plant response rating (scale of 0 to 100 where 0 is no effect and 100 is complete control), Galium [14]
25: Plant response rating, Corn [1, 16] | Plant response rating (scale of 0 to 100 where 0 is no effect and 100 is complete control), Lambsquarters [6]
20: Plant response rating, Foxtail, Giant [10, 17]
98: Plant response rating, Soybean [7, 16]
10: Plant response rating, Ryegrass, Italian [3, 17] | Oat, Wild plant response rating [4] | Plant response rating, Barnyardgrass [9, 16] | Plant response rating, Nutsedge, Yellow [11, 16]
5: Plant response rating (scale of 0 to 100 where 0 is no effect and 100 is complete control), Corn [1] | Corn plant response rating [1] | Plant response rating, Corn [1, 17] | Plant response rating (scale of 0 to 100 where 0 is no effect and 100 is complete control), Ryegrass, Italian [3] | Ryegrass, Italian plant response rating [3] | Plant response rating (scale of 0 to 100 where 0 is no effect and 100 is complete control), Oat, Wild [4] | Plant response rating (scale of 0 to 100 where 0 is no effect and 100 is complete control), Barnyardgrass [9] | Barnyardgrass plant response rating [9] | Plant response rating, Barnyardgrass [9, 17] | Nutsedge, Yellow plant response rating [11] | Plant response rating, Nutsedge, Yellow [11, 17] | Plant response rating, Wheat [13, 16] | Plant response rating, Wheat [13, 17]
90: Plant response rating, Kochia [5, 16] | Plant response rating, Kochia [5, 17]
85: Plant response rating, Pigweed [12, 16] | Plant response rating, Ragweed [15, 16]
55: Waterhemp plant response rating [2] | Plant response rating, Oilseed Rape [8, 17] | Plant response rating, Foxtail, Giant [10, 16]
40: Oilseed Rape plant response rating [8] | Plant response rating (scale of 0 to 100 where 0 is no effect and 100 is complete control), Foxtail, Giant [10]
45: Plant response rating, Ragweed [15, 17]
75: Kochia plant response rating [5] | Plant response rating, Lambsquarters [6, 16] | Plant response rating, Galium [14, 16]
30: Plant response rating (scale of 0 to 100 where 0 is no effect and 100 is complete control), Waterhemp [2] | Lambsquarters plant response rating [6] | Plant response rating (scale of 0 to 100 where 0 is no effect and 100 is complete control), Pigweed [12] | Plant response rating (scale of 0 to 100 where 0 is no effect and 100 is complete control), Ragweed [15]
80: Plant response rating, Waterhemp [2, 16] | Soybean plant response rating [7]
0: Plant response rating (scale of 0 to 100 where 0 is no effect and 100 is complete control), Nutsedge, Yellow [11] | Plant response rating (scale of 0 to 100 where 0 is no effect and 100 is complete control), Wheat [13] | Wheat plant response rating [13]
15: Plant response rating, Ryegrass, Italian [3, 16] | Plant response rating, Oat, Wild [4, 16] | Plant response rating, Oat, Wild [4, 17] | Foxtail, Giant plant response rating [10]
35: Plant response rating (scale of 0 to 100 where 0 is no effect and 100 is complete control), Oilseed Rape [8] | Ragweed plant response rating [15]
70: Plant response rating, Waterhemp [2, 17] | Plant response rating (scale of 0 to 100 where 0 is no effect and 100 is complete control), Soybean [7]
65: Plant response rating (scale of 0 to 100 where 0 is no effect and 100 is complete control), Kochia [5] | Plant response rating, Lambsquarters [6, 17] | Plant response rating, Soybean [7, 17] | Pigweed plant response rating [12] | Galium plant response rating [14] | Plant response rating, Galium [14, 17]
50: Plant response rating, Pigweed [12, 17]

CCCNC(=O)c1cc(CC)n(Cc2ccnc(OC(F)F)c2)n1 [Compound 132]
45: Soybean plant response rating [7]
30: Pigweed plant response rating [12]
70: Plant response rating (scale of 0 to 100 where 0 is no effect and 100 is complete control), Kochia [5]
80: Plant response rating, Waterhemp [2, 16] | Kochia plant response rating [5] | Plant response rating, Kochia [5, 17]
15: Plant response rating, Wheat [13, 16]
65: Plant response rating, Waterhemp [2, 17] | Plant response rating (scale of 0 to 100 where 0 is no effect and 100 is complete control), Soybean [7] | Plant response rating, Oilseed Rape [8, 16] | Plant response rating, Oilseed Rape [8, 17]
85: Plant response rating, Lambsquarters [6, 16]
5: Plant response rating (scale of 0 to 100 where 0 is no effect and 100 is complete control), Corn [1] | Corn plant response rating [1] | Plant response rating (scale of 0 to 100 where 0 is no effect and 100 is complete control), Barnyardgrass [9] | Barnyardgrass plant response rating [9] | Plant response rating (scale of 0 to 100 where 0 is no effect and 100 is complete control), Foxtail, Giant [10] | Plant response rating (scale of 0 to 100 where 0 is no effect and 100 is complete control), Nutsedge, Yellow [11] | Plant response rating (scale of 0 to 100 where 0 is no effect and 100 is complete control), Wheat [13]
98: Plant response rating, Soybean [7, 16]
60: Plant response rating, Pigweed [12, 16] | Galium plant response rating [14] | Plant response rating, Galium [14, 17]
20: Plant response rating, Corn [1, 16] | Plant response rating, Nutsedge, Yellow [11, 17]
75: Plant response rating, Corn [1, 17] | Plant response rating, Lambsquarters [6, 17] | Plant response rating, Galium [14, 16]
10: Plant response rating (scale of 0 to 100 where 0 is no effect and 100 is complete control), Ryegrass, Italian [3] | Ryegrass, Italian plant response rating [3] | Plant response rating, Ryegrass, Italian [3, 16] | Plant response rating, Ryegrass, Italian [3, 17] | Plant response rating (scale of 0 to 100 where 0 is no effect and 100 is complete control), Oat, Wild [4] | Oat, Wild plant response rating [4] | Plant response rating, Oat, Wild [4, 17] | Plant response rating, Barnyardgrass [9, 17] | Foxtail, Giant plant response rating [10] | Nutsedge, Yellow plant response rating [11] | Plant response rating, Nutsedge, Yellow [11, 16] | Plant response rating (scale of 0 to 100 where 0 is no effect and 100 is complete control), Pigweed [12] | Wheat plant response rating [13] | Plant response rating, Wheat [13, 17] | Plant response rating (scale of 0 to 100 where 0 is no effect and 100 is complete control), Ragweed [15] | Ragweed plant response rating [15]
55: Waterhemp plant response rating [2] | Lambsquarters plant response rating [6] | Oilseed Rape plant response rating [8] | Plant response rating, Foxtail, Giant [10, 16] | Plant response rating (scale of 0 to 100 where 0 is no effect and 100 is complete control), Galium [14] | Plant response rating, Ragweed [15, 17]
25: Plant response rating, Oat, Wild [4, 16] | Plant response rating (scale of 0 to 100 where 0 is no effect and 100 is complete control), Lambsquarters [6] | Plant response rating (scale of 0 to 100 where 0 is no effect and 100 is complete control), Oilseed Rape [8]
95: Plant response rating, Soybean [7, 17]
90: Plant response rating, Kochia [5, 16] | Plant response rating, Ragweed [15, 16]
50: Plant response rating, Barnyardgrass [9, 16]
35: Plant response rating (scale of 0 to 100 where 0 is no effect and 100 is complete control), Waterhemp [2] | Plant response rating, Foxtail, Giant [10, 17] | Plant response rating, Pigweed [12, 17]
